This passage reports EC50 results from patent US20100204265A1 (priority 2009, published 2010).

Molecules are shown by their SMILES.

In this test the test system is ET (Huh-lucubineo-ET) cell line harboring I389luc-ubi-neo/NS3-3′/ET HCV replicon. Description: Replicon assay (HCV replicon, luciferase readout). In kind it is cell-based. As to conditions: Hepatitis C virus. The gist of the method: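 Compounds at 10-point 2-fold dilutions (overall 0.1 nM to […], 0.5% DMSO) were applied to ET cells carrying a luciferase-neo HCV replicon, seeded a day earlier. After 48-72 hours, luciferase-based % inhibition was fitted with a Hill equation for EC50, and parallel WST-1 readings gave TC50.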
On the technique in general: A replicon is a self-replicating genome or part of one, used to study replication in cells.
Regarding `N#Cc1c(-c2ccoc2)cc(C(F)F)c2nc(C(=O)N3CC=C(c4nccs4)C3)c(Cl)n12` [Compound 169, 3-Chloro-8-difluoromethyl-6-furan-3-yl-2-(3-thiazol-2-yl-2,5-dihydro-pyrrole-1-carbonyl)-imidazo[1,2-a]pyridine-5-carbonitrile], the EC50 (as a rule, the concentration at which the effect is half-maximal) stood at 0.28 µM. `O=C(c1nc2c(C(F)(F)F)cc(-c3ccoc3)cn2c1CO)N1CC=C(c2nccs2)C1` [Compound 170, (6-Furan-3-yl-3-hydroxymethyl-8-trifluoromethyl-imidazo[1,2-a]pyridin-2-yl)-(3-thiazol-2-yl-2,5-dihydro-pyrrol-1-yl) methanone] yielded an EC50 of 0.026 µM.

Molecule `O=C(c1nc2c(C(F)(F)F)cc(-c3ccoc3)cn2c1CO)N1CC=C(c2ncccc2F)CC1` [Compound 171, (3-Fluoro-3′,6′-dihydro-2′H-[2,4′]bipyridinyl-1′-yl)-(6-furan-3-yl-3-hydroxymethyl-8-trifluoromethyl-imidazo[1,2-a]pyridin-2-yl)-methanone] yielded an EC50 of 1.41 µM. Under `CC(O)c1c(C(=O)N2CC=C(c3ncccc3F)CC2)nc2c(C(F)(F)F)cc(-c3ccoc3)cn12` (stereo not shown) [Compound 172, (3-Fluoro-3′,6′-dihydro-2′H-[2,4′]bipyridinyl-1′-yl)-[6-furan-3-yl-3-(1-hydroxy-ethyl)-8-trifluoromethyl-imidazo[1,2-a]pyridin-2-yl]-methanone] stands 3.11 µM; under `O=C(c1nc2c(C(F)(F)F)cc(-c3cn[nH]c3)cn2c1CO)N1CC=C(c2nccs2)C1` [Compound 173, [3-Hydroxymethyl-6-(1H-pyrazol-4-yl)-8-trifluoromethyl-imidazo[1,2-a]pyridin-2-yl]-(3-thiazol-2-yl-2,5-dihydro-pyrrol-1-yl)-methanone], 0.444 µM. Under `O=C(c1nc2c(C(F)(F)F)cc(-c3cn[nH]c3)cn2c1Cl)N1CCC(OCC2CC2)CC1` [Compound 174, [3-Chloro-6-(1H-pyrazol-4-yl)-8-trifluoromethyl-imidazo[1,2-a]pyridin-2-yl]-(4-cyclopropylmethoxy-piperidin-1-yl)-methanone] stands 0.31 µM; under `O=C(c1nc2c(C(F)(F)F)cc(-c3ccoc3)cn2c1Cl)N1CCC(OCC2CC2)CC1` [Compound 175, (3-Chloro-6-furan-3-yl-8-trifluoromethyl-imidazo[1,2-a]pyridin-2-yl)-(4-cyclopropylmethoxy-piperidin-1-yl)-methanone], 0.79 µM. As to `CCCOC1CCN(C(=O)c2nc3c(C(F)(F)F)cc(-c4cn[nH]c4)cn3c2Cl)CC1` [Compound 176, [3-Chloro-6-(1H-pyrazol-4-yl)-8-trifluoromethyl-imidazo[1,2-a]pyridin-2-yl]-(4-propoxy-piperidin-1-yl)-methanone], the EC50 was 0.883 µM. Regarding `CCOC1CCN(C(=O)c2nc3c(C(F)(F)F)cc(-c4cn[nH]c4)cn3c2Cl)CC1` [Compound 177, [3-Chloro-6-(1H-pyrazol-4-yl)-8-trifluoromethyl-imidazo[1,2-a]pyridin-2-yl]-(4-ethoxy-piperidin-1-yl)-methanone], the 50% effective concentration (EC50) amounted to 1.08 µM.

Take `COc1cccc(NC2CCN(C(=O)c3nc4c(C(F)(F)F)cc(-c5ccoc5)cn4c3Cl)C2)c1` (stereo not shown) [Compound 178, (3-Chloro-6-furan-3-yl-8-trifluoromethyl-imidazo[1,2-a]pyridin-2-yl)-[3-(3-methoxy-phenylamino)-pyrrolidin-1-yl]-methanone]: the half-maximal effective concentration (EC50) was found to be 2.41 µM. Regarding `O=C(c1nc2c(C(F)(F)F)cc(-c3cn[nH]c3)cn2c1Cl)N1CCC(Nc2ccccc2)C1` (stereo not shown) [Compound 179, [3-Chloro-6-(1H-pyrazol-4-yl)-8-trifluoromethyl-imidazo[1,2-a]pyridin-2-yl]-(3-phenylamino-pyrrolidin-1-yl)-methanone], a half-maximal response (EC50) required 10.2 µM. `COc1ccc(NC2CCN(C(=O)c3nc4c(C(F)(F)F)cc(-c5ccoc5)cn4c3Cl)C2)cc1` (stereo not shown) [Compound 180, (3-Chloro-6-furan-3-yl-8-trifluoromethyl-imidazo[1,2-a]pyridin-2-yl)-[3-(4-methoxy-phenylamino)-pyrrolidin-1-yl]-methanone] came in with an EC50 of 12.1 µM.

For the molecule `CCOC1CCN(C(=O)c2nc3c(C(F)(F)F)cc(-c4cn[nH]c4)cn3c2Cl)C1` (stereo not shown) [Compound 181, [3-Chloro-6-(1H-pyrazol-4-yl)-8-trifluoromethyl-imidazo[1,2-a]pyridin-2-yl]-(3-ethoxy-pyrrolidin-1-yl)-methanone], the EC50 is 13.5 µM. Under `NC(=O)COC1CCN(C(=O)c2nc3c(C(F)(F)F)cc(-c4cn[nH]c4)cn3c2Cl)CC1` [Compound 182, 2-{1-[3-Chloro-6-(1H-pyrazol-4-yl)-8-trifluoromethyl-imidazo[1,2-a]pyridine-2-carbonyl]-piperidin-4-yloxy}-acetamide] stands 54.6 µM; under `O=C(c1nc2c(C(F)(F)F)cc(-c3ccoc3)cn2c1Cl)N1CCC(Nc2ncccn2)C1` (stereo not shown) [Compound 183, (3-Chloro-6-furan-3-yl-8-trifluoromethyl-imidazo [1,2-a]pyridin-2-yl)-[3-(pyrimidin-2-ylamino)-pyrrolidin-1-yl]-methanone], 55 µM; under `O=C(Cc1cn2cc(-c3ccoc3)cc(C(F)(F)F)c2n1)Nc1nccs1` [Compound 184, 2-(6-Furan-3-yl-8-trifluoromethyl-imidazo[1,2-a]pyridin-2-yl)-N-thiazol-2-yl-acetamide], over 50 µM. Molecule `O=C(Cc1cn2cc(-c3ccoc3)cc(C(F)(F)F)c2n1)NCc1ccccc1` [Compound 185, N-Benzyl-2-(6-furan-3-yl-8-trifluoromethyl-imidazo[1,2-a]pyridin-2-yl)-acetamide] displayed an EC50 of 4.8 µM. Under `O=C(Cc1cn2cc(-c3ccoc3)cc(C(F)(F)F)c2n1)N1CC=C(c2nccs2)C1` [Compound 186, 2-(6-Furan-3-yl-8-trifluoromethyl-imidazo[1,2-a]pyridin-2-yl)-1-(3-thiazol-2-yl-2,5-dihydro-pyrrol-1-yl)-ethanone] stands 5.98 µM. Then `O=C(Cc1cn2cc(-c3ccoc3)cc(C(F)(F)F)c2n1)N1CCC(c2cccs2)C1` (stereo not shown) [Compound 187, 2-(6-Furan-3-yl-8-trifluoromethyl-imidazo[1,2-a]pyridin-2-yl)-1-(3-thiophen-2-yl-pyrrolidin-1-yl)-ethanone], with 2 µM; and `O=C(Cc1cn2cc(-c3ccoc3)cc(C(F)(F)F)c2n1)N1CCCC1c1cccs1` (stereo not shown) [Compound 188, 2-(6-Furan-3-yl-8-trifluoromethyl-imidazo[1,2-a]pyridin-2-yl)-1-(2-thiophen-2-yl-pyrrolidin-1-yl)-ethanone], with over 50 µM; and `O=C(Cc1cn2cc(-c3ccoc3)cc(C(F)(F)F)c2n1)NS(=O)(=O)c1cccs1` [Compound 189, Thiophene-2-sulfonic acid [2-(6-furan-3-yl-8-trifluoromethyl-imidazo[1,2-a]pyridin-2-yl)-acetyl]-amide], with over 50 µM. Under `CS(=O)(=O)NC1CN(C(=O)Cc2cn3cc(-c4ccoc4)cc(C(F)(F)F)c3n2)C1` [Compound 190, N-{1-[2-(6-Furan-3-yl-8-trifluoromethyl-imidazo[1,2-a]pyridin-2-yl)-acetyl]-azetidin-3-yl}-methanesulfonamide] stands over 50 µM; under `O=C(Cc1cn2cc(-c3ccoc3)cc(C(F)(F)F)c2n1)N1CC=C(c2nccs2)CC1` [Compound 191, 2-(6-Furan-3-yl-8-trifluoromethyl-imidazo[1,2-a]pyridin-2-yl)-1-(4-thiazol-2-yl-3,6-dihydro-2H-pyridin-1-yl)-ethanone], over 50 µM. Consider `O=C(Cc1cn2cc(-c3ccoc3)cc(C(F)(F)F)c2n1)NCCc1ccccc1` [Compound 192, 2-(6-Furan-3-yl-8-trifluoromethyl-imidazo[1,2-a]pyridin-2-yl)-N-phenethyl-acetamide], for which the EC50 is over 50 µM.

`O=C(NC1CCC(c2ccccc2)CC1)c1nc2c(C(F)(F)F)cc(-c3ccoc3)cn2c1Cl` (stereo not shown) [Compound 193, 3-Chloro-6-furan-3-yl-8-trifluoromethyl-imidazo[1,2-a]pyridine-2-carboxylic acid (4-phenyl-cyclohexyl)-amide] registered an EC50 of 2.5 µM. As to `O=C(c1ccccc1)C1CCN(C(=O)c2nc3c(C(F)(F)F)cc(-c4ccoc4)cn3c2Cl)CC1` [Compound 194, (4-Benzoyl-piperidin-1-yl)-(3-chloro-6-furan-3-yl-8-trifluoromethyl-imidazo[1,2-a]pyridin-2-yl)-methanone], the EC50 turned out to be 0.889 µM. For the molecule `O=C(c1nc2c(C(F)(F)F)cc(-c3ccoc3)cn2c1Cl)N1CCC(N2CCCC2)CC1` [Compound 195, (3-Chloro-6-furan-3-yl-8-trifluoromethyl-imidazo[1,2-a]pyridin-2-yl)-(4-pyrrolidin-1-yl-piperidin-1-yl)-methanone], the EC50 is over 50 µM. For the molecule `O=C(c1nc2c(C(F)(F)F)cc(-c3ccoc3)cn2c1Cl)N1CCC(n2ccnc2)CC1` [Compound 197, (3-Chloro-6-furan-3-yl-8-trifluoromethyl-imidazo[1,2-a]pyridin-2-yl)-(4-imidazol-1-yl-piperidin-1-yl)-methanone], the concentration giving a half-maximal response (EC50) amounted to 3.5 µM. Turning to `O=C(c1nc2c(C(F)(F)F)cc(-c3ccoc3)cn2c1Cl)N1CC=C(C#Cc2cccnc2)CC1` [Compound 198, (3-Chloro-6-furan-3-yl-8-trifluoromethyl-imidazo[1,2-a]pyridin-2-yl)-(4-pyridin-3-ylethynyl-3,6-dihydro-2H-pyridin-1-yl)-methanone], the half-maximal effective concentration (EC50) came to 14.6 µM. Under `CC(C)(C)C#CC1=CCN(C(=O)c2nc3c(C(F)(F)F)cc(-c4ccoc4)cn3c2Cl)CC1` [Compound 199, (3-Chloro-6-furan-3-yl-8-trifluoromethyl-imidazo[1,2-a]pyridin-2-yl)-[4-(3,3-dimethyl-but-1-ynyl)-3,6-dihydro-2H-pyridin-1-yl]-methanone] stands over 50 µM; under `O=C(c1nc2c(C(F)(F)F)cc(-c3ccoc3)cn2c1Cl)N1CC=C(C#CC2CCCC2)CC1` [Compound 200, (3-Chloro-6-furan-3-yl-8-trifluoromethyl-imidazo[1,2-a]pyridin-2-yl)-(4-cyclopentylethynyl-3,6-dihydro-2H-pyridin-1-yl)-methanone], over 50 µM.
